Experiments:
Format in all cases: cell-based
[1] = test system: murine bone marrow progenitor cultures; assay: BFU-E and CFU-E erythropoietin-dependent progenitor colony assays; details: 10-100 ng/ml MIF, 1-20 ng/ml TNFα, or 10-100 U/ml IFNγ
Description: Bone marrow cells were harvested, plated in a methylcellulose-based medium, and colony numbers scored after the addition of murine cytokines. Individual assays were performed in duplicate, and the data shown is a compilation of 3-6 independently performed experiments. % inhibition of colony formation is calculated with reference to a cytokine-minus control. All values shown are the mean±SD and are significant when compared to wells with no cytokine addition (P<0.05). CFU-E: colony forming unit—erythroid; BFU-E: burst-forming unit—erythroid.
The two inflammatory cytokines, TNFα and IFNγ, were also studied. TNFα and IFNγ are produced as a consequence of macrophage and T cell activation (McDevitt et al. 2004. Curr Hematol Rep 3:97-106). The appearance of BFU-E and CFU-E were quantified after culture with these cytokines, applied either alone or in combination.
BFU-E and CFU-E Progenitor Cell Assays. The progenitor cell (colony) assays were performed according to the standardized methods described previously (Martiney et al. 2000. Infection and Immunity 68:2259-2267) and protocols from StemCell Technologies (Vancouver; BC, Canada). Briefly, washed murine bone marrow cells were plated in sterile 35-mm dishes containing a methylcellulose-based medium and growth factors. The total number of bone marrow cells plated in duplicate culture dishes were as follows: 2×10^5 for CFU-E and 5×10^5 for BFU-E. MethoCult™ M3334 was utilized for the CFU-E and BFU-E colony assays. The media for CFU-E and BFU-E was volume adjusted by adding 1 part Isocove's MDM to 9 parts MethoCult™ M3334 to give final concentrations of the following components: 15% fetal bovine serum, 1% BSA, […] transferrin, […] insulin, 1% methylcellulose, 10^−4 M 2-mercaptoethanol, 2 mM L-glutamine and 3 units/ml erythropoietin. Each assay of different bone marrow progenitor cells was performed independently 3-6 times.

ERK-1/2 = ERK-1/2 phosphorylation in COS-7/M6 stable transformants (Western blot); details: 20 nM; COS-7/CD74+CD44 cell line or primary macrophages
CD44 = CD44 phospho-serine sandwich ELISA; details: H-89, 20 μM; RO-31-2880, 10 μM
Description: (§1) FIGS. 12A-12E show the phosphoserine content of CD74 and CD44 measured by ELISA. […] The ELISA values represent the mean±SD of triplicate measurements. Experiments were replicated twice. *P<0.02 versus corresponding control (Student's T test, two-tailed). […] Cell lysates were prepared and probed for PKA and PKC using phospho-specific, and total anti-PKA and anti-PKC antibodies.
Ser325 is constitutively phosphorylated in resting cells, but undergoes de-phosphorylation in response to PKC activating stimuli such as phorbol esters. […] The effect of MIF-stimulation CD44 phosphorylation was analyzed in the COS-7 and MEF cell lines by sandwich ELISA using an anti-CD44 capture antibody to quantify CD44 phospho-serine residues (Perez et al. (2003). Nature Immunol. 4:1083-92). […]
The serine phosphorylation of CD74 and CD44 was quantified by specific sandwich ELISA (Perez et al. (2003). Nature Immunol 4:1083-92). […] After several washes (0.5% Tween-20 in PBS), 0.2 μg/ml anti-phospho-serine antibody (Hypromatrix) conjugated with horseradish peroxidase was added, and immunoreactivity measured by the TMB reagent (DakoCytomation) and the data analyzed with SpectraMax Plus (Molecular Devices). […]

CD74 = CD74 phospho-serine sandwich ELISA; details: H-89 20 μM; RO-31-2880 10 μM; COS-7/CD74+CD44
Description: as §1
The observation that the phosphoserine content of CD74 increased only in cells that expressed CD74 and full-length CD44 is consistent with the notion that the MIF-mediated phosphorylation of CD74 is dependent on the activity of the CD44 intracytoplasmic domain.
The serine phosphorylation of CD74 and CD44 was quantified by specific sandwich ELISA (Perez et al. (2003). Nature Immunol 4:1083-92). […] After several washes (0.5% Tween-20 in PBS), 0.2 μg/ml anti-phospho-serine antibody (Hypromatrix) conjugated with horseradish peroxidase was added, and immunoreactivity measured by the TMB reagent (DakoCytomation) and the data analyzed with SpectraMax Plus (Molecular Devices).
Cell lysates were collected and analyzed by immunoblots using a pair of anti-phospho-PICA and anti-(total)-PKA antibodies, a pair of anti-phospho-PKC (all from Cell Signaling) and anti-(total)-PKC (Santa Cruz) antibodies, or a pair of anti-phospho-p56^lck (Cell Signaling) and anti-(total) p56^lck (sc-433, Santa Cruz) antibodies.

HIV-1ADA = assay: HIV-1 replication in monocyte-derived macrophage cultures (RT activity); details: polymyxin B 10 μg/ml added to MIF 50 ng/ml
Description: Triplicate cultures of monocyte-derived macrophages were infected with HIV-1ADA in the presence of anti-MIF MAb (25 μg/ml) or isotype control. Virus replication was monitored by RT activity in culture supernatants. Results are presented as mean±SD. […] Control cultures were cultivated with PMB mixed with an isotype immunoglobulin with or without MIF.
To investigate this possibility, HIV-infected macrophages were cultured in the presence of a neutralizing anti-MIF antibody or isotype control. Triplicate cultures of monocyte-derived macrophages were infected with HIV-1ADA in the presence of anti-MIF MAb (25 μg/ml) or isotype control. Virus replication was monitored by RT activity in culture supernatants. […] Control cultures were cultivated with PMB mixed with an isotype immunoglobulin with or without MIF.

## TNFα
[1]
  BFU-E and CFU-E colony formation: dose-dependently inhibited

## COc1c(C=O)c(O)cc2c1C(=O)c1ccccc1C2=O [damnacanthal, reference compound]
ERK-1/2
  phosphorylation of ERK1/2: inhibition of the phosphorylation of p56^lck and ERK1/2

## O=S(=O)(NCCNC/C=C/c1ccc(Br)cc1)c1cccc2cnccc12 [H-89, reference compound]
CD44
  serine phosphorylation of CD44 after MIF stimulation in presence of kinase inhibitor: reduced by PKA inhibition
CD74
  MIF stimulation of CD74 phosphorylation in presence of kinase inhibitor: decreased markedly

## polymyxin B [reference compound]
HIV-1ADA
  inhibitory effect of MIF on viral replication: did not significantly reduce the inhibitory effect of MIF

B1: IFNγ: Recombinant mouse IFN-γ from R&D Systems (protein, UniProt P01580 23-155, looked up)
Interferon gamma: HGTVIESLESLNNYFNSSGIDVEEKSLFLDIWRNWQKDGDMKILQSQIISFYLRLFEVLKDNQAISNNISVIESHLITTFFSNSKAKKDAFMSIAKFEVNNPQVQRQAFNELIRVVHQLLPESSLRKRKRSRC
[1]
  BFU-E and CFU-E colony formation: dose-dependently inhibited

Reference: patent US20100143379A1 (priority 2005, published 2010)
